Source: PMC4055736, “Functional Characterization of a Novel Family of Acetylcholine-Gated Chloride Channels in Schistosoma mansoni” (PLoS Pathogens, 2014)

What was measured:
Assay type in all cases: cell-based
[1] = target: T1, SmACC-1 (Schistosoma mansoni, UniProt V5WAE7); test: YFP halide sensor iodide flux assay in transfected HEK-293 cells; block of […] nicotine response by […] antagonist
T1 construct: gene ACC-1; full-length, human codon-optimized, C-terminal FLAG tag; homomeric channel
T1 sequence (V5WAE7 24-804): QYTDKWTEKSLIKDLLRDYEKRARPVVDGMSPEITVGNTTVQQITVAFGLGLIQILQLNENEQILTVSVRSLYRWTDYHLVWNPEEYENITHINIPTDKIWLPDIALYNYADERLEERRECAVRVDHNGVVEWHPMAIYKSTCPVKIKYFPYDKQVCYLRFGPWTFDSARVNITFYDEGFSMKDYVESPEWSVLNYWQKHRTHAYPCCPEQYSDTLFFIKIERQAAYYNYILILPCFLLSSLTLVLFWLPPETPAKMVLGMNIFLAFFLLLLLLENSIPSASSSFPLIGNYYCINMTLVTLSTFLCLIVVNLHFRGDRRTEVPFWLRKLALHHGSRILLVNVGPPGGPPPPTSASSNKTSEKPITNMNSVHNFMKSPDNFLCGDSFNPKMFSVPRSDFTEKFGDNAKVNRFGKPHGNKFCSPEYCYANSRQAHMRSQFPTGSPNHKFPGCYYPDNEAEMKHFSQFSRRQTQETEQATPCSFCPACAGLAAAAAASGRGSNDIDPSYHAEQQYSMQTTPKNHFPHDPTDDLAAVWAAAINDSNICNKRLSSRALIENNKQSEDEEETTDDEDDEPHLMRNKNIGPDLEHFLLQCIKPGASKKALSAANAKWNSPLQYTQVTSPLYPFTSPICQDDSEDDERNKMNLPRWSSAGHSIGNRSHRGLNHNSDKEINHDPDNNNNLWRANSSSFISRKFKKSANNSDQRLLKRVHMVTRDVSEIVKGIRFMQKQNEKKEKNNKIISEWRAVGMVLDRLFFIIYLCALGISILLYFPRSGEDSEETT

[2] = target: T1, SmACC-1; test: YFP halide sensor iodide flux assay in transfected HEK-293 cells, […] agonist
[3] = target: T1, SmACC-1; test: YFP halide sensor iodide flux assay in transfected HEK-293 cells, dose response (agonist)

Structure (SMILES) | YFP halide sensor iodide flux assay in transfected HEK-293 cells, 100 μM agonist [2] | also measured
COc1cc2c3cc1Oc1cc(ccc1O)C[C@@H]1c4c(cc(OC)c(O)c4Oc4ccc(cc4)C[C@@H]3N(C)CC2)CC[N+]1(C)C [D-tubocurarine] | – | YFP halide sensor iodide flux assay in transfected HEK-293 cells; block of 100 μ [1]: only D-tubocurarine was able to significantly block the activation of SmACC-1 by nicotine
COC(=O)C1=CCCN(C)C1 [arecoline] | statistically significant responses were also seen with other cholinergic agonists (ACh, choline chloride, carbachol and arecoline) | –
C[N+](C)(C)CCOC(N)=O [carbachol] | statistically significant responses were also seen with other cholinergic agonists (ACh, choline chloride, carbachol and arecoline) | –
C[N+](C)(C)CCO [choline] | statistically significant responses were also seen with other cholinergic agonists (ACh, choline chloride, carbachol and arecoline) | –
CN1CCC[C@H]1c1cccnc1 [nicotine] | – | EC50 [3]: 4.3 ± 1.4 µM
